According to ChEMBL document CHEMBL2417474, “Synthesis, antiproliferative and anti-inflammatory activities of some novel 6-aryl-2-(p-(methanesulfonyl)phenyl)-4,5-dihydropyridazi-3(2H)-ones” (Eur J Med Chem, 2013):

Tested on: CAKI-1
Test: Growth inhibition of human CAKI-1 cells assessed as cell growth at 10 uM after 48 hrs by sulforhodamine B assay
Format: functional
Details: CAKI-1, 48 h, read-out: Activity

Cc1cc(O)ccc1C1=NN(c2ccc(S(C)(=O)=O)cc2)C(=O)CC1
growth at 10 µM: 25.4%

CCc1ccc(C2=NN(c3ccc(S(C)(=O)=O)cc3)C(=O)CC2)cc1
growth at 10 µM: 16.6%
